Patent publication US20060079566A1, “PDK-1/Akt signaling inhibitors” (priority 2003, published 2006)
“Also recorded” adds a separate entry of the source. Where two headings read alike, the source gives them in different places.

Experiments:
recombinant PDK-1 = biological target: T1, recombinant PDK-1 (Homo sapiens, UniProt O15530); experiment: PDK-1 kinase activity (Upstate kit, SGK-coupled, cell-free); assay type: biochemical; conditions: ratio of IC50 values
T1 construct: purchased Upstate (Lake Placid, N.Y.)
T1 sequence (O15530 1-556): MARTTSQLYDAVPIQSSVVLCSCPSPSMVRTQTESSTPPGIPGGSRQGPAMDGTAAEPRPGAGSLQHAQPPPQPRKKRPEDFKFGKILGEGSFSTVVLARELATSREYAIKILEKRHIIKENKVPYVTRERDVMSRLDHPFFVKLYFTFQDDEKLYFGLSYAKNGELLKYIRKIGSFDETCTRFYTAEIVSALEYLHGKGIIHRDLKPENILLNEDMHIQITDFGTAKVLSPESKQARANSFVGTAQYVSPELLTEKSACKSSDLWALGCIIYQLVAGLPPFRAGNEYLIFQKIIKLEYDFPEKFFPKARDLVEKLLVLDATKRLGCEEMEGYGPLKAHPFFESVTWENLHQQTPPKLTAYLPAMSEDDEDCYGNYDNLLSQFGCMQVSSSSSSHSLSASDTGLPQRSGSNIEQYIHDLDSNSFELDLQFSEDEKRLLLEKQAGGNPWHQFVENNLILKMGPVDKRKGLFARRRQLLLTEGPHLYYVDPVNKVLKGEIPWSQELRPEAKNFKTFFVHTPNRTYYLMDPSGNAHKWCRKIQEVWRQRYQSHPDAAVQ
Description: PDK-1 kinase activity This in vitro assay was performed using a PDK-1 kinase assay kit (Upstate, Lake Placid, N.Y.) according to the vendor's instructions. This cell-free assay is based on the ability of recombinant PDK-1, in the presence of DMSO vehicle or the test agent, to activate its downstream kinase serum- and glucocorticoid-regulated kinase (SGK.) which, in turn, phosphorylates the Akt/SGK-specific peptide substrate RPRAATF with [γ-^32]-ATP. […] The reported values represent the means of two independent determinations.

[1] = in vivo
NCI-H322M = experiment: NCI DTP screen (SRB), Non-Small Cell Lung Cancer; assay type: cell-based; conditions: NCI-H322H
Description: (§1) Screening of compounds 70 and 71 against several cancer cell lines The human tumor cell lines of the cancer screening panel are grown in RPMI 1640 medium containing 5% fetal bovine serum and 2 mM L-glutamine. For a typical screening experiment, cells are inoculated into 96 well microtiter plates in 100 μL at plating densities ranging from 5,000 to 40,000 cells/well depending on the doubling time of individual cell lines. After cell inoculation, the microtiter plates are incubated at 37° C., 5% CO2, 95% air and 100% relative humidity for 24 h prior to addition of experimental drugs.
(§2) After 24 h, two plates of each cell line are fixed in situ with TCA, to represent a measurement of the cell population for each cell line at the time of drug addition (Tz). Experimental drugs are solubilized in dimethyl sulfoxide at 400-fold the desired final maximum test concentration and stored frozen prior to use. At the time of drug addition, an aliquot of frozen concentrate is thawed and diluted to twice the desired final maximum test concentration with complete medium containing 50 μg/ml gentamicin. Additional four, 10-fold or ½ log serial dilutions are made to provide a total of five drug concentrations plus control. Aliquots of 100 μl of these different drug dilutions are added to the appropriate microtiter wells already containing 100 μl of medium, resulting in the required final drug concentrations.
(§3) Following drug addition, the plates are incubated for an additional 48 h at 37° C., 5% CO2, 95% air, and 100% relative humidity. For adherent cells, the assay is terminated by the addition of cold TCA. Cells are fixed in situ by the gentle addition of 50 μl of cold 50% (w/v) TCA (final concentration, 10% TCA) and incubated for 60 minutes at 4° C. The supernatant is discarded, and the plates are washed five times with tap water and air dried. Sulforhodamine B (SRB) solution (100 μl) at 0.4% (w/v) in 1% acetic acid is added to each well, and plates are incubated for 10 minutes at room temperature. After staining, unbound dye is removed by washing five times with 1% acetic acid and the plates are air dried. Bound stain is subsequently solubilized with 10 mM trizma base, and the absorbance is read on an automated plate reader at a wavelength of 515 nm. For suspension cells, the methodology is the same except that the assay is terminated by fixing settled cells at the bottom of the wells by gently adding 50 μl of 80% TCA (final concentration, 16% TCA). Using the seven absorbance measurements [time zero, (Tz), control growth, (C), and test growth in the presence of drug at the five concentration levels (Ti)], the percentage growth is calculated at each of the drug concentrations levels. Percentage growth inhibition is calculated as: [(Ti−Tz)/(C−Tz)]×100 for concentrations for which Ti>/=Tz [(Ti−Tz)/Tz]×100 for concentrations for which Ti<Tz
(§4) Three dose response parameters are calculated for each experimental agent. […] The drug concentration resulting in total growth inhibition (TGI) is calculated from Ti=Tz. […] Values are calculated for each of these three parameters if the level of activity is reached; however, if the effect is not reached or is exceeded, the value for that parameter is expressed as greater or less than the maximum or minimum concentration tested.

[2] = Preliminary animal studies, daily oral administration; conditions: daily oral administration for one month; data not shown
LOX IMVI = experiment: NCI DTP screen (SRB), Melanoma; assay type: cell-based; conditions: LOX IKVI
Description: as §1, §2, §3, §4

RXP 393 = experiment: NCI DTP screen (SRB), Renal Cancer; assay type: cell-based, human
Description: as §1, §2, §3, §4

UO-31 = experiment: NCI DTP screen (SRB), Renal Cancer; assay type: cell-based, human; conditions: UD-31
Description: as §1, §2, §3, §4

immunoprecipitated Akt = experiment: Direct inhibition of immunoprecipitated Akt kinase activity; assay type: biochemical, human
MCP7 = experiment: NCI DTP screen (SRB), Breast Cancer; assay type: cell-based, human; conditions: MCF7
Description: as §1, §2, §3, §4

MALNE-3M = experiment: NCI DTP screen (SRB), Melanoma; assay type: cell-based; conditions: MALME-3M
U251 = experiment: NCI DTP screen (SRB), CNS Cancer; assay type: cell-based, human; conditions: Log10 Concentration −4.0
Description: as §1, with “drugs. […]” for “drugs.”
Following drug addition, the plates are incubated for an additional 48 h at 37° C., 5% CO2, 95% air, and 100% relative humidity. […] Bound stain is subsequently solubilized with 10 mM trizma base, and the absorbance is read on an automated plate reader at a wavelength of 515 nm. […] Using the seven absorbance measurements [time zero, (Tz), control growth, (C), and test growth in the presence of drug at the five concentration levels (Ti)], the percentage growth is calculated at each of the drug concentrations levels. Percentage growth inhibition is calculated as: [(Ti−Tz)/(C−Tz)]×100 for concentrations for which Ti>/=Tz [(Ti−Tz)/Tz]×100 for concentrations for which Ti<Tz
Three dose response parameters are calculated for each experimental agent. […]

[3] = system: sixty human tumor cell lines; experiment: NCI DTP sixty cell line assay, means over the panel; assay type: cell-based
Description: as §1, §2, §3, §4

HS 57BT = experiment: NCI DTP screen (SRB), Breast Cancer; assay type: cell-based; conditions: HS S78T
Description: as §1, §2, §3, §4

Akt = experiment: Immunoprecipitated Akt kinase assay from drug-treated PC-3 cells (intracellular Akt activation); assay type: cell-based, human; conditions: PC-3 cells treated 2 h, read-out: IC50 for inhibiting intracellular Akt activation
Description: Immunoprecipitated Akt kinase assay Akt immunoprecipitation was carried out according to a modified, published procedure. PC-3 cells were treated with DMSO vehicle or the test agents at the indicated concentrations for 2 h and then lysed at 4° C for 1 h in buffer A containing 50 mM Tris-HCl, pH 7.5, 1% Triton X-100, 1 mM EDTA, 1 mM EGTA, 50 mM sodium fluoride, 10 mM sodium β-glycerophosphate. 0.1% 2-mercaptoethanol, 0.1 mM phenylmethylsulfonyl fluoride, and 1 μg/mL each of aprotinin, pepstatin, and leupeptin. Cell lysates were centrifuged at 10,000 g for 5 min, and the supernatant was treated with anti-Akt at 4° C. for 60 min., followed by protein G-agarose beads for additional 60 min. The immunoprecipitate was used to analyze Akt kinase activity by using the Akt/SGK-specific peptide substrate RPRAATF as described above. Values represented the means of two independent determinations.

PC-3 cells [4] = experiment: Cell proliferation (Coulter counter) in PC-3 cells; assay type: cell-based, human; conditions: 1 μM; 10% FBS-supplemented RPMI 1640 medium
Description: (§5) Cell Culture PC-3 (p53−/−) human androgen-nonresponsive prostate cancer cells were purchased from the American […] (Manassas, Va.). Cells were cultured in RPMI 1640 medium (Gibco, Grand Island, N.Y.) supplemented with 10% fetal bovine serum (FBS; Gibco) at 37° C. in a humidified incubator containing 5% CO2.
Cell proliferation PC-3 cells were seeded into six-well plates at 50,000 cells/well in 10% FBS-containing RPMI 1640 medium. Following a 24 h attachment period, cells were treated in triplicate with the indicated concentration of compounds 1-36 or DMSO vehicle in 10% FBS-containing RPMI-1640 medium. At different time intervals, cells were harvested by trypsinization, and numerated using a Coulter counter model Z1 D/T (Beckman Coulter, Fullerton, Calif.).

PC-3 cells [5] = experiment: Cell viability analysis (MTT) in PC-3 cells; assay type: cell-based, human
Description: as §5
Cell viability analysis The effect of 4-[5-(4-methylphenyl)-3-(trifluoromethyl)-1H-pyrazol-1-yl]benzenesulfonamide and its derivatives on PC-3 cell viability was assessed by using the MTT {[3-(4,5-dimethylthiazol-2-yl)-2,5-diphenyl-2H-tetrazolium bromide]} assay in six replicates. Cells were grown in 10% FBS-supplemented RPMI 1640 medium in 96-well, flat bottomed plates for 24 h, and were exposed to various concentrations of compounds 1-36 dissolved in DMSO (final concentration ≦0.1%) in 1% serum-containing RPMI 1640 medium for different time intervals. Controls received DMSO vehicle at a concentration equal to that in drug-treated cells. The medium was removed, replaced by 200 μl of 0.5 mg/ml of MTT in 10% FBS-containing RPMI-1640 medium, and cells were incubated in the CO2 incubator at 37° C. for 2 h. Supernatants were removed from the wells, and the reduced MTT dye was solubilized in 200 μL/well DMSO. Absorbance at 570 nm was determined on a plate reader.

phospho-473Ser Akt = experiment: Western blot of Akt and phospho-Akt in PC-3 cells; assay type: cell-based, human; conditions: 5 μM and above, 2 h
Description: Immunoblotting. The general procedure for the Western blot analysis of Akt and phospho-Akt is described as follows. Cells were washed in PBS, resuspended in SDS sample buffer sonicated by an ultrasonic sonicator for 5 sec, and boiled for 5 min. After brief centrifugation, equivalent protein concentrations from the soluble fractions were resolved in 10% SDS-polyacrylamide gels on a Minigel apparatus, and transferred to a nitrocellulose membrane using a semi-dry transfer cell. The transblotted membrane was washed three times with TBS containing 0.05% Tween 20 (TBST). After blocking with TBST containing 5% nonfat milk for 60 min., the membrane was incubated with the primary antibody at 1:1,000 dilution in TBST-5% low fat milk at 4° C. for 12 h, and was then washed three times with TBST. The membrane was probed with goat anti-rabbit IgG-HRP conjugates (1:1,000) for 1 h at room temperature, and was washed with TBST three times. The immunoblots were visualized by enhanced chemiluminescence.

N=C(N)Nc1ccc(-n2nc(C(F)(F)F)cc2-c2ccc3c(ccc4ccccc43)c2)cc1 [Compound 71, 4-[5-(2-Phenanthrenyl)-3-(trifluoromethyl)-1H-pyrazol-1-yl]-phenyl-guanidine]
increase in PDK-1 inhibition potency over compound 59 (recombinant PDK-1): five-fold
oral absorption [1]: can be orally absorbed
average serum concentrations relative to TGI ([1]; po): average serum concentrations several-fold higher than TGI
Percent Growth (NCI-H322M; Log10 Concentration −4.0): −59%
Percent Growth (NCI-H322M; Log10 Concentration −5.0): −100%
toxicity to the animals [2]: little toxicity
Percent Growth (LOX IMVI; Log10 Concentration −4.0): −53%
Percent Growth (LOX IMVI; Log10 Concentration −5.0): −98%
Percent Growth (RXP 393; Log10 Concentration −4.0): −4%
Percent Growth (RXP 393; Log10 Concentration −5.0): −61%
Percent Growth (UO-31; Log10 Concentration −4.0): −35%
Percent Growth (UO-31; Log10 Concentration −5.0): −100%
direct inhibitory effect on immunoprecipitated Akt kinase activity (immunoprecipitated Akt): no appreciable direct inhibition
Percent Growth (MCP7; Log10 Concentration −4.0): −49%
Percent Growth (MCP7; Log10 Concentration −5.0): −84%
Percent Growth (MALNE-3M; Log10 Concentration −4.0): −50%
Percent Growth (MALNE-3M; Log10 Concentration −5.0): −87%
Percent Growth (U251): −12%
range in which cell growth is completely suppressed in a diverse range of tumor cell lines [3]: 3 to 5 µM
concentration at which many cell lines respond to the growth inhibitory effect ([3]; two-day exposure, 5% FBS-containing medium): ≥ 0.1 µM
GI50 ([3]; two-day treatment, serum-containing medium, read-out: mean GI50 among the sixty cell lines): 1.3 µM
Percent Growth (HS 57BT; Log10 Concentration −4.0): −38%
Percent Growth (HS 57BT; Log10 Concentration −5.0): −69%

4-[5-(2-phenanthrenyl)-3-(trifluoromethyl)-1H-1-yl]benzenesulfonamide [Compound 59]
improvement of IC50 values (PDK-1 and PC-3) over the comparative compound (recombinant PDK-1): five- to six-fold
IC50 (Akt): 5 µM
anti-proliferative activity on PC-3 cell proliferation (PC-3 cells [4]): substantial anti-proliferative activity
IC50 (PC-3 cells [5]; 24 h, 1% FBS-containing RPMI 1640 medium, read-out: dose required to induce 50% PC-3 cell death): 5 µM
IC50 (PC-3 cells [5]; inducing apoptotic death in PC-3 cells / PC-3 cell viability, read-out: IC50 PC-3): 5 µM
direct inhibitory effect on immunoprecipitated Akt kinase activity (immunoprecipitated Akt): Neither compound 59 nor other the other compounds displayed a direct inhibitory effect; also recorded: no appreciable direct inhibition
Akt dephosphorylation (Western blot) (phospho-473Ser Akt): significant Akt dephosphorylation
